Results: PubChem BioAssay (NCI)
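Tested at 5 concentrations; 48 h exposure; 96-well plates; endpoints linearly interpolated, else capped at highest concentration. GI50 is the concentration that inhibits growth by half. TGI: total growth inhibition.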

Assays:
Experiment in all cases: inhibition of tumour cell growth, NCI panel, 48 h
[1] = system: M14 melanoma
[2] = system: NCI-H460 lung
[3] = system: OVCAR-5 ovarian
[4] = system: RXF 393 renal
[5] = system: OVCAR-3 ovarian
[6] = system: RPMI-8226 leukemia
[7] = system: CCRF-CEM leukemia
[8] = system: T-47D breast
[9] = system: SNB-75 CNS
[10] = system: COLO 205 colon
[11] = system: UACC-257 melanoma
[12] = system: HT29 colon
[13] = system: NCI-H23 lung
[14] = system: ACHN renal
[15] = system: IGROV1 ovarian
[16] = system: UO-31 renal
[17] = system: SNB-19 CNS
[18] = system: K-562 leukemia
[19] = system: SN12C renal
[20] = system: MALME-3M melanoma
[21] = system: MCF7 breast
[22] = system: SK-MEL-28 melanoma
[23] = system: KM12 colon
[24] = system: PC-3 prostate
[25] = system: HL-60(TB) leukemia
[26] = system: SF-268 CNS
[27] = system: BT-549 breast
[28] = system: LOX IMVI melanoma
[29] = system: HCT-15 colon
[30] = system: NCI-H226 lung
[31] = system: NCI-H522 lung
[32] = system: MOLT-4 leukemia
[33] = system: 786-0 renal
[34] = system: TK-10 renal
[35] = system: SK-MEL-5 melanoma
[36] = system: HOP-62 NSCLC
[37] = system: HS 578T breast
[38] = system: CAKI-1 renal
[39] = system: SF-295 CNS
[40] = system: MDA-MB-231 breast
[41] = system: UACC-62 melanoma
[42] = system: SK-OV-3 ovarian
[43] = system: SK-MEL-2 melanoma
[44] = system: SW-620 colon
[45] = system: HCC-2998 colon
[46] = system: SF-539 CNS
[47] = system: HOP-92 NSCLC
[48] = system: OVCAR-8 ovarian
[49] = system: OVCAR-4 ovarian
[50] = system: A498 renal
[51] = system: MDA-MB-435
[52] = system: A549 NSCLC
[53] = system: DU-145 prostate
[54] = system: HCT-116 colon
[55] = system: EKVX NSCLC
[56] = system: U251 CNS
[57] = system: NCI/ADR-RES ovarian
[58] = system: MDA-MB-468 breast

## Cc1ccc2nc(-c3ccc(-c4nnc(SCC(=O)Nc5ccc(Cl)cc5)o4)cc3)[nH]c2c1
[1]
  GI50: 5.75 µM
  TGI: 25.4 µM
[2]
  GI50: 3.67 µM
  TGI: 15.8 µM
[3]
  GI50: 15.4 µM
  TGI: 38.3 µM
[4]
  GI50: 4.41 µM
  TGI: 16.5 µM
[5]
  GI50: 7.37 µM
  TGI: 22.4 µM
[6]
  GI50: 9.08 µM
  TGI: > 100 µM
[7]
  GI50: 5.91 µM
  TGI: > 100 µM
[8]
  GI50: 18.1 µM
  TGI: 69.7 µM
[9]
  GI50: 10.5 µM
  TGI: 23.9 µM
[10]
  GI50: 9.86 µM
  TGI: 30.8 µM
[11]
  GI50: 15.2 µM
  TGI: 31.5 µM
[12]
  GI50: 4.73 µM
  TGI: 19.3 µM
[13]
  GI50: 4.37 µM
  TGI: 16.6 µM
[14]
  GI50: 4 µM
  TGI: 15.3 µM
[15]
  GI50: 5.9 µM
  TGI: 19 µM
[16]
  GI50: 10.6 µM
  TGI: 22.7 µM
[17]
  GI50: 6.93 µM
  TGI: 23.8 µM
[18]
  GI50: 3.88 µM
  TGI: > 100 µM
[19]
  GI50: 4.21 µM
  TGI: 15.8 µM
[20]
  GI50: 10.4 µM
  TGI: 22.2 µM
[21]
  GI50: 4 µM
  TGI: 16.7 µM
[22]
  GI50: 7.41 µM
  TGI: 20.2 µM
[23]
  GI50: 13.3 µM
  TGI: 39 µM
[24]
  GI50: 3.73 µM
  TGI: 20.5 µM
[25]
  GI50: 18.5 µM
  TGI: > 100 µM
[26]
  GI50: 15.7 µM
  TGI: 40.3 µM
[27]
  GI50: 16.4 µM
  TGI: 32.4 µM
[28]
  GI50: 2.17 µM
  TGI: 5.64 µM
[29]
  GI50: 7.87 µM
  TGI: 21.2 µM
[30]
  GI50: 2.96 µM
  TGI: 9.92 µM
[31]
  GI50: 10.2 µM
  TGI: 24.9 µM
[32]
  GI50: 7.02 µM
  TGI: 75 µM
[33]
  GI50: 3.05 µM
  TGI: 10.7 µM
[34]
  GI50: 6.8 µM
  TGI: 20.6 µM
[35]
  GI50: 12.3 µM
  TGI: 26.4 µM
[36]
  GI50: 5.43 µM
  TGI: 23.5 µM
[37]
  GI50: 10.2 µM
  TGI: 37.3 µM
[38]
  GI50: 3.59 µM
  TGI: 15.9 µM
[39]
  GI50: 3.25 µM
  TGI: 12.4 µM
[40]
  GI50: 4.37 µM
  TGI: 16 µM
[41]
  GI50: 10.1 µM
  TGI: 21.8 µM
[42]
  GI50: 7.48 µM
  TGI: 25.4 µM
[43]
  GI50: 15.5 µM
  TGI: 33.4 µM
[44]
  GI50: 3.73 µM
  TGI: 19.5 µM
[45]
  GI50: 10.6 µM
  TGI: 23.7 µM
[46]
  GI50: 10.9 µM
  TGI: 23.1 µM
[47]
  GI50: 5.99 µM
  TGI: 24.4 µM
[48]
  GI50: 4.84 µM
  TGI: 16.9 µM
[49]
  GI50: 8.99 µM
  TGI: 28.7 µM
[50]
  GI50: 16.3 µM
  TGI: 31.4 µM
[51]
  GI50: 6.5 µM
  TGI: 20.2 µM
[52]
  GI50: 3.09 µM
  TGI: 12.5 µM
[53]
  GI50: 7.92 µM
  TGI: 47.7 µM
[54]
  GI50: 3.01 µM
  TGI: 15.2 µM
[55]
  GI50: 6.56 µM
  TGI: 21.5 µM
[56]
  GI50: 3.23 µM
  TGI: 14.2 µM
[57]
  GI50: 4.13 µM
  TGI: 14.6 µM
[58]
  GI50: 4.99 µM
  TGI: 17.6 µM
